For one molecule, IC50 results are on record in patent US10172864B2, “Therapeutically active compounds and their methods of use” (AGIOS PHARMACEUTICALS, INC, priority 2013, dated 2019).

For this test, the target named is IDH1 wt/IDH1 R132H heterodimer (Homo sapiens (Human), UniProt O75874, R132H). Description: IDH1 wt/IDH1 R132H heterodimer enzymatic assay, NADPH depletion with diaphorase/resazurin readout. The conditions noted are these: 300 μM NADP (saturated). The class given is biochemical. As to the method:
The following describes the experimental procedures that can be used to obtain data on columns 2 and 4 of Table 4 and column 2 of Table 5.
In the primary reaction, the reduction of α-KG acid to 2-HG is accompanied by a concomitant oxidation of NADPH to NADP. The amount of NADPH remaining at the end of the reaction time is measured in a secondary diaphorase/resazurin reaction in which the NADPH is consumed in a 1:1 molar ratio with the conversion of resazurin to the highly fluorescent resorufin.
The mixture of compound, enzyme, and cofactor is pre-incubated at room temperature for 1 hr prior to the addition of alpha-ketoglutarate. To perform the secondary reaction, 10 uL of 1× buffer containing 36 μg/ml diaphorase and […] resazurin is added to the primary reaction and incubated for a further 5 minutes at 25° C. […] Compounds or compound dilutions are prepared in 100% DMSO concentration and diluted 1:50 into the final reaction. […] IC50s are determined.
IDH1 or IDH2 wildtype (wt) and mutant heterodimers are expressed and purified by methods known in the art. […] Host cell contaminants are removed by washing the column with equilibration buffer followed by equilibration buffer containing 20 mM imidazole and 60 mM imidazole to baseline. […]

IDH1 wt/IDH1 R132H heterodimer, sequence (O75874 whole entry R132H): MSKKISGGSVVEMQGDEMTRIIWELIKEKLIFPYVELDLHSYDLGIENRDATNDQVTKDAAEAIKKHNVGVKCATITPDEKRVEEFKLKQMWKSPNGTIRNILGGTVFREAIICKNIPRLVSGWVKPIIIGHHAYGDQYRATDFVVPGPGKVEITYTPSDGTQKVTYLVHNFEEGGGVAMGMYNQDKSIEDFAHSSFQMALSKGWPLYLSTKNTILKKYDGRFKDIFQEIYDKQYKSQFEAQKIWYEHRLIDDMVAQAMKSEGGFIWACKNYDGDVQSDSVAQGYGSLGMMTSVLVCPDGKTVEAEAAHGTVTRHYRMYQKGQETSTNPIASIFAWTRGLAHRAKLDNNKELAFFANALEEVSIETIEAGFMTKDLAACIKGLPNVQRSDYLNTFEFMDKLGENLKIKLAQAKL
IDH1 wt/IDH1 R132H heterodimer, sequence (O75874 whole entry, stated change not applied): as the sequence (O75874 whole entry R132H) above, with H132R counted along it

In turn, `FC1(F)CCC(Nc2nc(NC3CCC(F)(F)CC3)nc(-c3nc(C(F)(F)F)cs3)n2)CC1` [Compound 357] displayed an IC50 of 50 to 100 nM.
